Where two headings read alike, the source gives them in different places.
Tests used:
MV4-11 = experiment: MTS cell proliferation assay, MV4-11; format: cell-based; details: for IC50: Homo sapiens, MV4-11, MTS
[1] = system: AML cell lines (MOLM13, MV4-11, OCI-AML3); experiment: Formal synergy analysis (Combenefit, BLISS) with MDM2 inhibitor AMG-232; format: cell-based; details: Cpd3 0-10 μM with AMG-232 0-10 μM
Description: FIGS. 6D-6F show formal synergy analysis following treatment of different cell-lines (as indicated below) with a representative disclosed compound, Cpd3 (0-10 μM), in the presence or absence of an MDM2 inhibitor, AMG-232 (0-10 μM). The formal synergy analysis was carried out using the Combenefit analysis program (Cambridge Research UK, Cambridge Institute, University of Cambridge, United Kingdom; see also Di Veroli G Y, et al. Bioinformatics. 2016; 32:2866-2868). Combenefit analysis software uses the Loewe, Bliss, and HSA (Highest Single Agent) models to generate surface analyses with statistical significance and global metrics/scores. Data shown for the cell-lines in FIGS. 6D-6F were obtained using the BLISS analysis.

[2] = Pharmacokinetic study, single dose by IV, IP, PO; format: in vivo, wild type B6 mice; details: 10 mg/kg single dose; for AUC(0-t) / Tmax / bioavailability / half-life: B6, mouse, plasma; for Cmax: B6, mouse plasma
Source text: (§1) LC-MS/MS Assay Materials: Acetonitrile and methanol were LC-MS grade (Fisher Scientific (Fair Lawn, N.J., USA). Other chemicals were as follows: formic Acid (98%, v/v in water; Fisher Scientific, Fair Lawn, N.J., USA); ammonium acetate (Sigma Aldrich Inc.); water: DDH2O obtained from a Millipore water system; and brequinar was obtained from Sigma. (>99% purity). Solvent A: 0.1% formic acid in water. Solvent B: 0.1% Formic Acid in methanol and acetonitrile. Internal Standard (“IS”) precipitation solution was 150 ng/ml internal standards in acetonitrile: water (3:1, v/v).
(§2) Sample preparation: To 10 μL plasma sample was added 100 μL of working IS solution and 20 μL MeOH. Samples were then vortexed for 30 seconds, followed by centrifugation (Eppendorf 5415 R centrifuge) at 10,000 rpm for 8 minutes at 4° C. Supernatant of each sample was transferred into an autosampler vial and sealed with rubber/Teflon crimp cap. Sample volume that was injected onto HPLC was 5 μL. The calibrations samples were prepared at a test compound concentration of 1000, 500, 250, 100, 50, 10, 5 ng/mL in mouse plasma. The quality control samples were as follows: QC1=750 ng/mL, OC2=75 ng/mL, QC3=25 ng/mL, LLOQ=5 ng/mL.
(§3) HPLC Parameters: Accucore Vanquish C18 column (100×2.1 mm, dp=1.5 μm) used in a Vanquish UHPLC system, using a XBridge® BEH C18, 5-μm guard column. Mobile phase: gradient as provided below in Table 8 below. Column temperature: 40° C.±5° C.; Autosampler temperature: 10° C.±5° C. Flow rate: 0.4 ml/min. run time: 5.0 min.
(§4) The mass spectrometer used was a TSQ Quantiva (Thermo Fisher Scientific).
Briefly, wild type B6 mice were injected with a single dose (10 mg/kg) of Cpd3 by three different injection routes: oral gavage (PO), intravenous (IV) and intraperitoneal (IP) (N=4 per route). The vehicle used was 15% ethanol, 30% polyethylene glycol (PEG), and this same vehicle was used for each delivery route. Cpd3 was prepared as a 2.5 mg/mL concentration and delivered at 10 mg/kg (volume delivered in microliters was 4 times the weight of the mouse in grams). Blood plasma was sampled at time zero (0) and […] additional time points (15, 30 and 60 minutes, and 2, 6 and 24 hours), and the level of Cpd3 determined in mouse plasma by LC-MS/MS assay as described above. The data were used to calculate Cmax, Clast, Tmax, T1/2, AUC, and bioavailability for Cpd3 as appropriate for the route of administration.

[3] = Pharmacokinetic study, oral dosing at different dose levels; format: in vivo, wild type B6 mice; details: for AUC(0-t) / Cmax / Tmax / half-life: B6, mouse, plasma, oral gavage; for AUC(0-t): po
Source text: as §1, §2, §3, §4
FIGS. 14A-14C show representative pharmacokinetic data obtained following administration of a representative disclosed compound, Cpd3, via oral dosing at different dose levels carried out using the methods described herein below in Examples. Briefly, wild type B6 mice were administered a single dose of Cpd3 by oral gavage at increasing concentrations (10, 25, 50 and 75 mg/kg). Blood plasma was sampled at 15, 30 and 60 minutes, and 2, 6 and 24 hours.

[4] = system: p53 signaling pathway in MOLM13, MV4-11, OCI-AML3; experiment: Immunoblots for MDM2, p53, p-γH2AX, p21 in AML cell lines; format: cell-based; details: 1 μM, 24 hours
Description: FIGS. 6A-6F show representative data and analysis for the effect of a representative disclosed compound, Cpd3, on the inhibition of MDM2. FIGS. 6A-6C show representative immunoblots for cells following vehicle treatment, treatment with a representative disclosed compound, Cpd3, or treatment with a reference compound, brequinar (indicated as “BQR” in the figures) using methods as described herein above. Briefly, AML cell lines were treated with vehicle, 1 μM Cpd3 or 1 μM BQR for 24 hours. Lysates were prepared and immunoblots were performed for MDM2, p53, p-γH2AX, p21 and GAPDH used as loading controls. […] That is, Cpd3 promotes a p53 response evident by both upregulation of the downstream target p21, with compensatory induction of MDM2. […] These preliminary data validate that Cpd3 is a potent inhibitor of DHODH in AML, and further preclinical development of Cpd3 is warranted.

Q: Which results are given for `CCOc1ccc(-c2ccc(-c3cc(C(=O)O)c4cc(F)ccc4n3)cc2)cc1` [Cpd3, 2-(4′-ethoxy-[1,1′-biphenyl]-4-yl)-6-fluoroquinoline-4-carboxylic acid]?
A: rescue of cytotoxic effects by uridine (MV4-11; 0.25 or 0.5 μM compound, uridine 0 to 200 μM, 96 hours): rescued by growth in the presence of uridine; IC50 (MV4-11; 96 hour, Table 7, read-out: 96 hour IC50 (nM) in MV-411 cell line): ~500 nM; IC50 (MV4-11; 96 hours, read-out: IC50 (μM) at 96 hours, MV4-11): 670 nM; synergy with MDM2 inhibitor AMG-232 [1]: synergistic cell killing in AML cell lines; AUC(0-t) ([2]; IP): 120 ± 228 µg·h/mL; Tmax ([2]; IP): 0.31 ± 0.13 h; bioavailability ([2]; IP): 89%; half-life ([2]; IP): 2.2 ± 0.11 h; AUC(0-t) ([2]; IV): 134 ± 217 µg·h/mL; half-life ([2]; IV): 2.3 ± 0.19 h; AUC(0-t) ([2]; PO): 425 ± 163 µg·h/mL; Tmax ([2]; PO): 0.5 h; bioavailability ([2]; PO): 32%; half-life ([2]; PO): 5.6 ± 1.95 h; Cmax ([2]; IP): 40200 ± 9300 ng/mL; Cmax ([2]; IV): 36400 ± 14300 ng/mL; Cmax ([2]; PO): 12200 ± 4300 ng/mL; Clast ([2]; IP): 16 ± 7 ng/mL; Clast ([2]; IV): 22 ± 16 ng/mL; Clast ([2]; PO): 310 ± 180 ng/mL; AUC(0-t) ([3]; 10 mg/kg, 10 mg/kg, read-out: AUC0-6): 47 ± 0.92 µg·h/mL; AUC(0-t) ([3]; 10 mg/kg, 10 mg/kg, read-out: AUC0-24): 66.7 ± 6.17 µg·h/mL; AUC(0-t) ([3]; 25 mg/kg, 25 mg/kg, read-out: AUC0-6): 101 ± 38 µg·h/mL; AUC(0-t) ([3]; 25 mg/kg, 25 mg/kg, read-out: AUC0-24): 171 ± 34.2 µg·h/mL; AUC(0-t) ([3]; 50 mg/kg, 50 mg/kg, read-out: AUC0-6): 333 ± 47.1 µg·h/mL; AUC(0-t) ([3]; 50 mg/kg, 50 mg/kg, read-out: AUC0-24): 480 ± 62.1 µg·h/mL; AUC(0-t) ([3]; 75 mg/kg, 75 mg/kg, read-out: AUC0-6): 531 ± 103 µg·h/mL; AUC(0-t) ([3]; 75 mg/kg, 75 mg/kg, read-out: AUC0-24): 786 ± 39.3 µg·h/mL; Cmax ([3]; 10 mg/kg): 18600 ± 930 ng/mL; Tmax ([3]; 10 mg/kg): 0.83 ± 0.29 h; half-life ([3]; 10 mg/kg): 3.4 ± 0.3 h; Cmax ([3]; 25 mg/kg): 35900 ± 12500 ng/mL; Tmax ([3]; 25 mg/kg): 0.67 ± 0.29 h; half-life ([3]; 25 mg/kg): 6.05 ± 1.97 h; Cmax ([3]; 50 mg/kg): 93200 ± 18000 ng/mL; Tmax ([3]; 50 mg/kg): 0.67 ± 0.29 h; half-life ([3]; 50 mg/kg): 3.23 ± 0.77 h; Cmax ([3]; 75 mg/kg): 115000 ± 8990 ng/mL; Tmax ([3]; 75 mg/kg): 0.75 ± 0.35 h; half-life ([3]; 75 mg/kg): 2.76 ± 0.3 h; relationship between dose and exposure ([3]; oral gavage, 10, 25, 50 and 75 mg/kg): linear relationship between dose and exposure; induction of p53 signaling pathway and DNA damage [4]: induces the p53 signaling pathway and DNA damage

— patent US11999697B2, “Methods and compositions for inhibition of dihydroorotate dehydrogenase” (OHIO STATE INNOVATION FOUNDATION, priority 2018, dated 2024)
